In patent US12679843B2, “Pyrrolopyrimidine amines as complement inhibitors” (BioCryst Pharmaceuticals, Inc., priority 2020, dated 2026):

These molecules were tested against Factor D (Homo sapiens, UniProt P00746) (assay: Factor D esterolytic assay (Z-Lys-SBzl thioester substrate, DTNB, 405 nm)). Conditions: substrate Z-Lys-SBzl 1.29 mM, 100 mM HEPES, 500 mM NaCl, pH 7.5, 10% DMSO, tested a minimum of three times.
Format: biochemical
Experimental: The IC50 value of a compound (i.e., the concentration of the compound that inhibits 50% of the enzymatic activity) was calculated according to the procedure reported in U.S. Pat. No. 6,653,340 B1, e.g., column 74 (incorporated by reference).
Specifically, the compounds were dissolved in a stock solution of DMSO at 10.0 or 100 mM. A portion of this stock solution was added to assay buffer in a final volume of 50 μL. Controls included buffer alone and enzyme solutions to which DMSO was added. Substrate was added to the reaction wells immediately or after incubation at room temperature. The reaction rates were measured spectrophotometrically by the generation of product at 405 nm for 600 sec. Background absorbance at 690 nm was measured and subtracted from the absorbance at 405 nm for each well.
The reaction rate for enzyme alone was compared to the rate of enzyme in the presence of inhibitor and the percent inhibition was calculated as shown below: Percent Inhibition=[Rate without inhibitor−Rate with inhibitor)/(Rate without inhibitor)]−100 Factor D Esterolytic Assay:
An established esterolytic assay for the measurement of Factor D activity and inhibition of Factor D activity was used (Kam, C. M.; McRae, B. J.; Harper, J. W.; Niemann, M. A.; Volanakis, J. E.; Powers, J. C. Human complement proteins D. C2, and B Active site mapping with peptide thioester substrates. J Biol. Chem. 1987, 262, 3444-3451). For this assay Z-Lys-SBzl, 1.29 mM (Kim, S.; Narayana, S. V. L; Volanakis, J. E. Mutational analysis of the substrate binding site of human complement Factor D. Biochemistry, 1994, 33, 14393-14399) was used as the substrate for Factor D ([…]). Hydrolysis of this compound by Factor D liberated a free sulfhydryl group which is then reacted with 5,5′-dithiobis(2-nitrobenzoic acid) producing an intense yellow color (Habeeb, A. F. S. A. Reaction of protein sulfhydryl groups with Ellman's Reagent. Methods in Enzymol. 1976, 25, 457-464). The assays were performed in 96 well microtiter plates and rates of hydrolysis were monitored at 405 nm on a Biotek Synergy H1 plate reader. Hydrolysis rates were reported as change in mOD/min. The assay was conducted in 100 mM HEPES, 500 mM NaCl, pH 7.5 containing 10% DMSO in a final volume of 50 μL per well.
An IC50, a compound concentration which inhibits 50% of the enzymatic activity, was calculated. Compounds in the examples were tested a minimum of three times.

Sequence of Factor D (P00746 26-253): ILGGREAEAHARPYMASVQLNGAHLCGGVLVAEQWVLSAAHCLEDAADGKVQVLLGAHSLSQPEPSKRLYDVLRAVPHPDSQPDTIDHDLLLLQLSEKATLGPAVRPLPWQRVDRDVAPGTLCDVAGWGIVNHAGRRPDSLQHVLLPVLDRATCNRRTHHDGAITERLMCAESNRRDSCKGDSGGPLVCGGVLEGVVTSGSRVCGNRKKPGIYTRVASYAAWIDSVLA

Structure (SMILES)	IC50 [nM]
COC(=O)c1ccc2c3c(N)ncnc3n(CC(=O)N3[C@@H]4C[C@@H]4C[C@H]3C(=O)Nc3cccc(Br)n3)c2c1 [Compound 41f, methyl 4-amino-9-(2-((1R,3S,5R)-3-((6-bromopyridin-2-yl)carbamoyl)-2-azabicyclo[3.1.0]hexan-2-yl)-2-oxoethyl)-9H-pyrimido[4,5-b]indole-7-carboxylate]	< 100
COC(=O)c1ccc2c3c(N)ncnc3n(CC(=O)N3[C@H](C(=O)Nc4cccc(Br)n4)C[C@@]4(C)C[C@@H]34)c2c1 [Compound 42a, methyl 4-amino-9-(2-((1R,3S,5R)-3-((6-bromopyridin-2-yl)carbamoyl)-5-methyl-2-azabicyclo[3.1.0]hexan-2-yl)-2-oxoethyl)-9H-pyrimido[4,5-b]indole-7-carboxylate]	< 100
Nc1ncnc2c1c1ccc(C(=O)O)cc1n2CC(=O)N1[C@@H]2C[C@@H]2C[C@H]1C(=O)Nc1cccc(Br)n1 [Compound 43a, 4-amino-9-(2-((1R,3S,5R)-3-((6-bromopyridin-2-yl)carbamoyl)-2-azabicyclo[3.1.0]hexan-2-yl)-2-oxoethyl)-9H-pyrimido[4,5-b]indole-7-carboxylic acid]	< 100
Nc1ncnc2c1c1cc(C(=O)O)ccc1n2CC(=O)N1[C@@H]2C[C@@H]2C[C@H]1C(=O)Nc1cccc(Br)n1 [Compound 44a, 4-amino-9-(2-((1R,3S,5R)-3-((6-bromopyridin-2-yl)carbamoyl)-2-azabicyclo[3.1.0]hexan-2-yl)-2-oxoethyl)-9H-pyrimido[4,5-b]indole-6-carboxylic acid]	< 100
CCOC(=O)CCc1ccc2c(c1)c1c(N)ncnc1n2CC(=O)N1[C@@H]2C[C@@H]2C[C@H]1C(=O)Nc1cccc(Br)n1 [Compound 45d, ethyl 3-(4-amino-9-(2-((1R,3S,5R)-3-((6-bromopyridin-2-yl)carbamoyl)-2-azabicyclo[3.1.0]hexan-2-yl)-2-oxoethyl)-9H-pyrimido[4,5-b]indol-6-yl)propanoate]	< 100
CCOC(=O)c1cccc2c1c1c(N)ncnc1n2CC(=O)N1[C@@H]2C[C@@H]2C[C@H]1C(=O)Nc1cccc(Br)n1 [Compound 46g, ethyl 4-amino-9-(2-((1R,3S,5R)-3-((6-bromopyridin-2-yl)carbamoyl)-2-azabicyclo[3.1.0]hexan-2-yl)-2-oxoethyl)-9H-pyrimido[4,5-b]indole-5-carboxylate]	100 to 1000
COC(=O)c1cccc2c3c(N)ncnc3n(CC(=O)N3[C@@H]4C[C@@H]4C[C@H]3C(=O)Nc3cccc(Br)n3)c12 [Compound 47g, methyl 4-amino-9-(2-((1R,3S,5R)-3-((6-bromopyridin-2-yl)carbamoyl)-2-azabicyclo[3.1.0]hexan-2-yl)-2-oxoethyl)-9H-pyrimido[4,5-b]indole-8-carboxylate]	< 100
CC(C)(C)OC(=O)Nc1ccc2c(c1)c1c(N)ncnc1n2CC(=O)N1[C@@H]2C[C@@H]2C[C@H]1C(=O)Nc1cccc(Br)n1 [Compound 48d, tert-butyl (4-amino-9-(2-((1R,3S,5R)-3-((6-bromopyridin-2-yl)carbamoyl)-2-azabicyclo[3.1.0]hexan-2-yl)-2-oxoethyl)-9H-pyrimido[4,5-b]indol-6-yl)carbamate]	< 100
N#Cc1ccc2c(c1)c1c(N)ncnc1n2CC(=O)N1[C@@H]2C[C@@H]2C[C@H]1C(=O)Nc1cccc(Br)n1 [Compound 49c, (1R,3S,5R)-2-(2-(4-amino-6-cyano-9H-pyrimido[4,5-b]indol-9-yl)acetyl)-N-(6-bromopyridin-2-yl)-2-azabicyclo[3.1.0]hexane-3-carboxamide]	< 100
Nc1ncnc2c1c1c(F)cccc1n2CC(=O)N1[C@@H]2C[C@@H]2C[C@H]1C(=O)Nc1cccc(Br)n1 [Compound 50f, (1R,3S,5R)-2-(2-(4-amino-5-fluoro-9H-pyrimido[4,5-b]indol-9-yl)acetyl)-N-(6-bromopyridin-2-yl)-2-azabicyclo[3.1.0]hexane-3-carboxamide]	100 to 1000
